The source of these data is US20080096894A1, “Anti-Bacterial Compounds” (ASTON UNIVERSITY, priority 2005, published 2008).

Experiment in all cases: MIC, doubling dilution in 96-well microtitre plate
Common to all, as to assay type: cell-based

For assay [1], the system named is Bacillus cereus. Here is the method: (§1) The compound was tested as follows. […] The wells were inoculated with organism ([…] of medium containing 10^6 cfu/mL) and the plates were incubated at 37° C. overnight. Where growth of organism occurred this was observed as a small button when viewed from underneath the plate. The MIC was determined as the lowest concentration inhibiting growth.

Assay [2] relates to Bacillus megarerium. The procedure: as §1
Assay [3] relates to Bacillus polymyxa. The procedure: as §1
The subject of assay [4] is Bacillus subtilis. Here is the method: as §1
The subject of assay [5] is Enterococcus faecalis NCTC 5957. The procedure:
as §1

In assay [6] the test system is Enterococcus faecium. Here is the method:
as §1

In assay [7] the test system is Micrococcus luteus. The procedure:
as §1

In assay [8] the test system is Micrococcus roseus. The procedure:
as §1

For assay [9], the system named is Moraxella catarrhalis. Here is the method: as §1
Assay [10] has as its system Staphylococcus aureus (MRSA) 96-7475. The procedure: as §1
For assay [11], the system named is Staphylococcus aureus NCTC 6571. The procedure:
as §1

For assay [12], the system named is Staphylococcus epidermidis NCTC 11047. The procedure:
as §1

Assay [13] has as its system Streptococcus bovis NCTC 11436. Here is the method:
as §1

Structures are written as SMILES.

Consider `CC(C)(C)c1cc(C=NN=C(N)c2cc[n+]([O-])cc2)c(O)c(C(C)(C)C)c1` [Compound 4PYOcq], for which the MIC in assay [1] fell in the range of 16 to 32 µg/mL; in assay [2] it was 32 to 64 µg/mL; in assay [3] it was 1 to 2 µg/mL; in [4], 64 to 128 µg/mL; in [5] it was 64 to 128 µg/mL; in [6] (Enterococcus faecium ATCC 10541), 32 to 64 µg/mL. Moreover, the MIC in assay [6] (Enterococcus faecium NCTC 7171) lay within 32 to 64 µg/mL; in [7], 8 to 16 µg/mL; in [8] it was 1 to 2 µg/mL; in assay [9], 32 to 64 µg/mL; in assay [10] it was 64 to 128 µg/mL; in assay [11], 16 to 32 µg/mL. In addition, the MIC in assay [12] lay within 32 to 64 µg/mL; in assay [13] it was 64 to 128 µg/mL.

One may read the MIC as the lowest concentration that inhibits growth of the organism.
